# Laboratory results from PubChem BioAssay (NCI).
#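 The concentration for 50% growth inhibition is given as GI50. At the TGI there is no net growth.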
# Assays:
# Assay in all cases: NCI tumour cell line growth inhibition, 384-well format
# EKVX NSCLC = system: EKVX NSCLC
# MCF7 breast = system: MCF7 breast
# OVCAR-5 ovarian = system: OVCAR-5 ovarian
# OVCAR-8 ovarian = system: OVCAR-8 ovarian
# OVCAR-3 ovarian = system: OVCAR-3 ovarian
# HL-60(TB) leukemia = system: HL-60(TB) leukemia
# COLO 205 colon = system: COLO 205 colon
# MOLT-4 leukemia = system: MOLT-4 leukemia
# SNB-75 CNS = system: SNB-75 CNS
# UO-31 renal = system: UO-31 renal
# SF-539 CNS = system: SF-539 CNS
# HCT-15 colon = system: HCT-15 colon
# RXF 393 renal = system: RXF 393 renal
# SK-MEL-2 melanoma = system: SK-MEL-2 melanoma
# ACHN renal = system: ACHN renal
# NCI-H522 lung = system: NCI-H522 lung
# NCI-H23 lung = system: NCI-H23 lung
# K-562 leukemia = system: K-562 leukemia
# HS 578T breast = system: HS 578T breast
# TK-10 renal = system: TK-10 renal
# MALME-3M melanoma = system: MALME-3M melanoma
# U251 glioblastoma = system: U251 glioblastoma
# M14 melanoma = system: M14 melanoma
# MDA-MB-231 breast = system: MDA-MB-231 breast
# HOP-92 NSCLC = system: HOP-92 NSCLC
# NCI-H226 lung = system: NCI-H226 lung
# A549 NSCLC = system: A549 NSCLC
# SNB-19 CNS = system: SNB-19 CNS
# NCI-H322M lung = system: NCI-H322M lung
# SK-MEL-28 melanoma = system: SK-MEL-28 melanoma
# IGROV1 ovarian = system: IGROV1 ovarian
# SK-OV-3 ovarian = system: SK-OV-3 ovarian
# MDA-MB-468 breast = system: MDA-MB-468 breast
# 786-0 renal = system: 786-0 renal
# SR leukemia = system: SR leukemia
# DU-145 prostate = system: DU-145 prostate
# HCT-116 colon = system: HCT-116 colon
# SF-295 CNS = system: SF-295 CNS
# OVCAR-4 ovarian = system: OVCAR-4 ovarian
# HOP-62 NSCLC = system: HOP-62 NSCLC
# SW-620 colon = system: SW-620 colon
# CAKI-1 renal = system: CAKI-1 renal
# SF-268 CNS = system: SF-268 CNS
# KM12 colon = system: KM12 colon
# UACC-257 melanoma = system: UACC-257 melanoma
# MDA-MB-435 melanoma = system: MDA-MB-435 melanoma
# UACC-62 melanoma = system: UACC-62 melanoma
# NCI-H460 NSCLC = system: NCI-H460 NSCLC
# BT-549 breast = system: BT-549 breast
# PC-3 prostate = system: PC-3 prostate
# HT29 colon = system: HT29 colon
# SN12C renal = system: SN12C renal
# A498 renal = system: A498 renal
# SK-MEL-5 melanoma = system: SK-MEL-5 melanoma
# T-47D breast = system: T-47D breast
compound,measurement,setting,value
COC1CCC(n2c([C@@H]3CCCC(=O)N3c3ccc(F)c(F)c3)nc3cc(-c4c(C)noc4C)ccc32)CC1 (stereo not given in full),GI50,EKVX NSCLC,15.6 µM
same,TGI,EKVX NSCLC,43.2 µM
same,GI50,MCF7 breast,0.0402 µM
same,TGI,MCF7 breast,12.4 µM
same,GI50,OVCAR-5 ovarian,11.3 µM
same,TGI,OVCAR-5 ovarian,58.7 µM
same,GI50,OVCAR-8 ovarian,2.8 µM
same,TGI,OVCAR-8 ovarian,15.8 µM
same,GI50,OVCAR-3 ovarian,2.9 µM
same,TGI,OVCAR-3 ovarian,16.1 µM
same,GI50,HL-60(TB) leukemia,0.0497 µM
same,TGI,HL-60(TB) leukemia,1.2 µM
same,GI50,COLO 205 colon,3.44 µM
same,TGI,COLO 205 colon,18.9 µM
same,GI50,MOLT-4 leukemia,2.05 µM
same,TGI,MOLT-4 leukemia,14 µM
same,GI50,SNB-75 CNS,12.3 µM
same,TGI,SNB-75 CNS,26 µM
same,GI50,UO-31 renal,2.13 µM
same,TGI,UO-31 renal,13.8 µM
same,GI50,SF-539 CNS,5.76 µM
same,TGI,SF-539 CNS,19 µM
same,GI50,HCT-15 colon,2.95 µM
same,TGI,HCT-15 colon,14.8 µM
same,GI50,RXF 393 renal,1.24 µM
same,TGI,RXF 393 renal,5.22 µM
same,GI50,SK-MEL-2 melanoma,4.46 µM
same,TGI,SK-MEL-2 melanoma,18.4 µM
same,GI50,ACHN renal,3.62 µM
same,TGI,ACHN renal,16.6 µM
same,GI50,NCI-H522 lung,1.38 µM
same,TGI,NCI-H522 lung,12.2 µM
same,GI50,NCI-H23 lung,10.2 µM
same,TGI,NCI-H23 lung,25.1 µM
same,GI50,K-562 leukemia,1.51 µM
same,TGI,K-562 leukemia,16.1 µM
same,GI50,HS 578T breast,0.716 µM
same,TGI,HS 578T breast,14.2 µM
same,GI50,TK-10 renal,1.55 µM
same,TGI,TK-10 renal,11.8 µM
same,GI50,MALME-3M melanoma,1.04 µM
same,TGI,MALME-3M melanoma,6.35 µM
same,GI50,U251 glioblastoma,12 µM
same,TGI,U251 glioblastoma,25.9 µM
same,GI50,M14 melanoma,0.568 µM
same,TGI,M14 melanoma,14.9 µM
same,GI50,MDA-MB-231 breast,3.05 µM
same,TGI,MDA-MB-231 breast,16.2 µM
same,GI50,HOP-92 NSCLC,4.57 µM
same,TGI,HOP-92 NSCLC,18.8 µM
same,GI50,NCI-H226 lung,1.07 µM
same,TGI,NCI-H226 lung,12.1 µM
same,GI50,A549 NSCLC,8.03 µM
same,TGI,A549 NSCLC,23.5 µM
same,GI50,SNB-19 CNS,11.5 µM
same,TGI,SNB-19 CNS,27.6 µM
same,GI50,NCI-H322M lung,3.02 µM
same,TGI,NCI-H322M lung,15.6 µM
same,GI50,SK-MEL-28 melanoma,7.88 µM
same,TGI,SK-MEL-28 melanoma,21.6 µM
same,GI50,IGROV1 ovarian,3.36 µM
same,TGI,IGROV1 ovarian,15.5 µM
same,GI50,SK-OV-3 ovarian,3.96 µM
same,TGI,SK-OV-3 ovarian,16.2 µM
same,GI50,MDA-MB-468 breast,2.94 µM
same,TGI,MDA-MB-468 breast,18.6 µM
same,GI50,786-0 renal,2.1 µM
same,TGI,786-0 renal,19.9 µM
same,GI50,SR leukemia,1.22 µM
same,TGI,SR leukemia,13.8 µM
same,GI50,DU-145 prostate,12.8 µM
same,TGI,DU-145 prostate,60.4 µM
same,GI50,HCT-116 colon,4.48 µM
same,TGI,HCT-116 colon,18.4 µM
same,GI50,SF-295 CNS,5.05 µM
same,TGI,SF-295 CNS,20 µM
same,GI50,OVCAR-4 ovarian,1.79 µM
same,TGI,OVCAR-4 ovarian,7.76 µM
same,GI50,HOP-62 NSCLC,2.92 µM
same,TGI,HOP-62 NSCLC,15.4 µM
same,GI50,SW-620 colon,13.9 µM
same,TGI,SW-620 colon,27.5 µM
same,GI50,CAKI-1 renal,0.532 µM
same,TGI,CAKI-1 renal,13.2 µM
same,GI50,SF-268 CNS,11.9 µM
same,TGI,SF-268 CNS,25.6 µM
same,GI50,KM12 colon,13.6 µM
same,TGI,KM12 colon,28.3 µM
same,GI50,UACC-257 melanoma,3.1 µM
same,TGI,UACC-257 melanoma,17.4 µM
same,GI50,MDA-MB-435 melanoma,7.03 µM
same,TGI,MDA-MB-435 melanoma,23.9 µM
same,GI50,UACC-62 melanoma,0.385 µM
same,TGI,UACC-62 melanoma,12.1 µM
same,GI50,NCI-H460 NSCLC,3.29 µM
same,TGI,NCI-H460 NSCLC,16.8 µM
same,GI50,BT-549 breast,2.27 µM
same,TGI,BT-549 breast,15.5 µM
same,GI50,PC-3 prostate,3.97 µM
same,TGI,PC-3 prostate,19.5 µM
same,GI50,HT29 colon,1.6 µM
same,TGI,HT29 colon,13.7 µM
same,GI50,SN12C renal,12 µM
same,TGI,SN12C renal,25.4 µM
same,GI50,A498 renal,6.19 µM
same,TGI,A498 renal,19.4 µM
same,GI50,SK-MEL-5 melanoma,0.489 µM
same,TGI,SK-MEL-5 melanoma,8.77 µM
same,GI50,T-47D breast,1.87 µM
same,TGI,T-47D breast,7.11 µM
